Assay results published in US20250000869A1, “TOPICAL COMPOSITIONS OF 2-PHENYL-3, 4-DIHYDROPYRROLO [2, L-F] [1, 2, 4] TRIAZINONE DERIVATIVES AND USES THEREOF” (TOPADUR PHARMA AG, priority 2021, published 2025).

Key:
[1] = Plasma concentrations after topical, on wound administration (satellite study, LC-MS/MS); format: in vivo, C57BL/6J mice
Method: In order to address the systemic exposure following topical, on wound administration of Compound 1, in a satellite study, plasma concentrations of Compound 1 was measured. To this end, eight male C57BL/6J mice (12 weeks of age, body weight 26.8±0.4 g (Mean±SD)) underwent surgery for generation of one full thickness, excisional, cutaneous wounds, in an identical procedure as described above. The study was performed in C57BL/6J mice due to limited availability of uPAR−/− mice. As described before, Compound 1 (in form of Topical Composition A2) was added in a dose volume of 25 μl to the wounds as a single dose. The dose related to body weight was approximately 0.565 μg/kg (from a total of 25 μl of 1 μM Compound 1 per mouse). Peripheral venous blood was sampled from the tail tip (or by cardiac puncture for the final sampling) in four mice at time points (min) 1, 5, 15, 30, 60 post administration of Compound 1 and in another four mice at time points (h) 1, 2, 4, 6, 24 post administration of Compound 1. Plasma was generated and Compound 1 measured by LC-MS/MS. The LLOQ for Compound 1 was at 800 pg/ml corresponding to 1.32 nM. […] Considering the plasma protein binding of Compound 1 in mice with unbound fractions (fu) of 0.08% for Compound 1 the unbound plasma concentrations should have been <[…] for Compound 1, corresponding to <[…] for Compound 1 when extrapolated to administration to two wounds per mice as this was done in the main efficacy study, under the assumption of dose linearity.

[2] = Plasma protein binding; format: in vitro ADME; conditions: mouse, mice, read-out: unbound fraction (fu), plasma protein binding
[3] = tested on: C57Bl/6J mice; assay: Ulcer core perfusion of full thickness excisional cutaneous wounds by LSCI/LASCA; format: in vivo; conditions: single dose 25 μl per wound, almost all times of measurements
Method: Effects of a single dose of Topical Composition A2, Topical Composition A4, and Vehicle Composition A, when administered on the perfusion of the ulcer core of full thickness excisional cutaneous wounds in C57B1/6J mice was investigated. Thus, Topical Compositions A2 and A4 were applied in a dose volume of 25 μl per wound. Each individual mouse had surgery for two wounds located symmetrical to the dorsal midline using 8 mm diameter punch biopsy devices.
Topical Compositions A2 and A4 or Vehicle Composition A were randomly administered to one or the other wound under a blinded protocol. This procedure enabled an intra-individual comparison between Compound 1 and its composition vehicle. Perfusion of the ulcer core as well as of the periulcer region was separately measured by Laser Speckle Contrast Imaging (LSCI)/Laser Speckle Contrast Analysis (LASCA) using a Perimed device. LASCA wound perfusion measurements of digital ulcers in SSc were previously shown to correlate with time to healing (Barsotti S et al Clin Rheumatol. (2020) 39(1):69-75).
In detail, a single application of Topical Compositions A2 and A4 or Vehicle Composition A, each at a volume of 25 μl per wound was randomly administered either to the right or left of two full thickness cutaneous wounds per mouse generated by 8 mm punch biopsies and symmetrically to the dorsal midline, at 24 h after surgery. […]

[4] = biological target: PDE5 (Homo sapiens, UniProt O76074); assay: IC50 of Compound 1 (earlier effected measurements); format: biochemical

CCCOc1ccc(S(=O)(=O)N2CCC(CCO[N+](=O)[O-])CC2)cc1-c1nn2c(CCC)c(/C=N/O)c(C)c2c(=O)[nH]1 [Compound 1, 2-[1-(3-{6-[(1E)-(hydroxyimino)methyl]-5-methyl-4-oxo-7-propyl-3H,4H-pyrrolo[2,1-f][1,2,4]triazin-2-yl}-4-propoxybenzenesulfonyl)piperidin-4-yl]ethyl nitrate]
unbound plasma concentration extrapolated to two wounds per mice ([1]; assumption of dose linearity): < 2120 nM | unbound plasma concentration ([1]; calculated from LLOQ and fu, one wound per mouse): < 1060 nM | plasma concentration of Compound 1 ([1]; single on wound dose 25 μl Topical Composition A2 (approx. 0.565 μg/kg), 1 min to 24 h, all time points and mice, LLOQ 800 pg/ml): < 1.32 nM | fraction unbound [2]: 0.0008 | ulcer core perfusion compared to Vehicle Composition A [3]: increases perfusion of ulcer core | IC50 [4]: 1.18 nM
